32 molecules from patent publication US20090264433A1, “Compounds, Compositions and Methods Comprising Triazine Derivatives” (Institute for OneWorld Health, priority 2008, published 2009) can be followed below.

Molecules are shown by their SMILES.

The target of this assay is T1, CFTR channel in human colonic T84 cells (Homo sapiens, UniProt P13569).
T1 construct: results in the phosphorylation and opening of CFTR anion channels; host or cells: human colonic T84 cells
T1 sequence (P13569 whole entry): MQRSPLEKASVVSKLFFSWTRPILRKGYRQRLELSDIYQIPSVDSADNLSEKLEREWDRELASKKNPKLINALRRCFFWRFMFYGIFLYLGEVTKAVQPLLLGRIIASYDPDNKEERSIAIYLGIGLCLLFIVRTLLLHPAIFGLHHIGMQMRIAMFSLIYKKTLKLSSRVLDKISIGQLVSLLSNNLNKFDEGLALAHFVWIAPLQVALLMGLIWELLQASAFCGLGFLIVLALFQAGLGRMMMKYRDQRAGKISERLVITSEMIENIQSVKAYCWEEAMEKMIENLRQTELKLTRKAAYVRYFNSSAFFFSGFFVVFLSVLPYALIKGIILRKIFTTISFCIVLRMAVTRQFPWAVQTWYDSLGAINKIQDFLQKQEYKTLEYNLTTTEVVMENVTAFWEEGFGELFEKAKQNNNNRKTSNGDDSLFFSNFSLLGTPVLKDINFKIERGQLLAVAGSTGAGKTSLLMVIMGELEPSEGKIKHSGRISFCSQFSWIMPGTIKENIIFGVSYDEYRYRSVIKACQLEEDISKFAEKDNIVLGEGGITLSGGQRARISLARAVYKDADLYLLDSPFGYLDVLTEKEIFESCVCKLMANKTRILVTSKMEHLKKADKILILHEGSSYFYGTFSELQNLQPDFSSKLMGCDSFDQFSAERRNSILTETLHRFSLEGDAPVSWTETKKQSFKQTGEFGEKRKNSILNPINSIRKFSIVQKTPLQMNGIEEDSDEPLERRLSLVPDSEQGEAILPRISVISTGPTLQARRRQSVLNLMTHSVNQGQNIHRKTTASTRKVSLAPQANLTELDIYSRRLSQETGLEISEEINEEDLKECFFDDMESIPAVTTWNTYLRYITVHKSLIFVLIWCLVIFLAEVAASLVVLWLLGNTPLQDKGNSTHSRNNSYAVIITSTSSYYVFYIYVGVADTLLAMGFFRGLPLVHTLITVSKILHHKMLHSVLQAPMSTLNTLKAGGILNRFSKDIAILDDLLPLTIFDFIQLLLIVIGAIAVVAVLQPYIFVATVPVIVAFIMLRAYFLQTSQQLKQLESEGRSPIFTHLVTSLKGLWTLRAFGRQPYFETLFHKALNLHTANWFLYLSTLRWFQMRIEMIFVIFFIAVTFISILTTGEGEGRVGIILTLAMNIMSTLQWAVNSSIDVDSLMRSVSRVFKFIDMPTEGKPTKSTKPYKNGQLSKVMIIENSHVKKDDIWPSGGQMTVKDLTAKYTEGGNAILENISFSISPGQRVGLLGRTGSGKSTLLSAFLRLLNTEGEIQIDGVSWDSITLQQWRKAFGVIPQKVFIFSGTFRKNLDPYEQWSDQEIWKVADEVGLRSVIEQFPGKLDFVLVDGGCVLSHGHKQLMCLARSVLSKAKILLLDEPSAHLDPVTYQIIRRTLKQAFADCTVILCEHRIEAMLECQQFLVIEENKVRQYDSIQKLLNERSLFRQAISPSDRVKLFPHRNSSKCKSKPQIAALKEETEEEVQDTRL
Description: T84 assay (FLIPR membrane potential dye, forskolin/IBMX-stimulated CFTR). The format is cell-based. Particulars: average of at least 2 runs unless annotated n = 1. On the procedure:
(§1) For example, Human colonic T84 cells can be acquired from the European Collection of Cell Cultures (ECACC) and grown in standard culture conditions as described by the supplier. On the day before assay 25,000 T84 cells per well are plated into standard black walled, clear bottom 384-well assay plates in standard growth medium consisting of DMEM:F12 with 10% FBS and incubated overnight. On the day of the assay the plates are washed using a standard assay buffer (HBSS with 10 mM Hepes) and incubated for 15 minutes in serum free cell culture medium before the addition of a commercially available membrane potential sensitive fluorescent dye (FLIPR Red membrane potential dye, Molecular Devices Corporation). T84 cells are incubated with the FLIPR Red membrane potential dye for 45 minutes in the presence and absence of test compound before being transferred to a commercially available fluorescence imaging plate reader (FLIPR384, Molecular Devices Corporation). Fluorescence levels are monitored continuously every second for 150 seconds; after an initial 10 second baseline, CFTR channel activity is stimulated through the addition of 10 μM forskolin in the presence of 100 μM of the phosphodiesterase inhibitor iso-butyl-methylxanthine (IBMX). Addition of the forskolin leads to the activation of intracellular adenylyl cylase 1, elevating cAMP levels and results in the phosphorylation and opening of CFTR anion channels. CFTR channel opening causes chloride ion efflux and subsequent depolarization of the cells, which is measured by an increase in fluorescence. CFTR inhibitor compounds prevent cell depolarization and the associated increase in fluorescence.
as §1, with “Human colonic” for “For example, Human colonic”, “T84 cells are acquired from” for “T84 cells can be acquired from”, “(ECACC) and are grown in” for “(ECACC) and grown in”
For `Oc1c(Br)cc(-c2cnc(OCCc3cccc4ccccc34)nn2)cc1Br` [Compound 1, 2,6-dibromo-4-(3-(2-(naphthalen-1-yl)ethoxy)-1,2,4-triazin-6-yl)phenol], the IC50 amounted to 0.26 µM.
The same measure for `Oc1c(Br)cc(-c2cnc(OCCc3ccc(Br)cc3)nn2)cc1Br` [Compound 2, 2,6-dibromo-4-(3-(4-bromophenethoxy)-1,2,4-triazin-6-yl)phenol]: 0.32 µM.
The same measure for `Oc1c(Br)cc(-c2cnc(OCc3ccc(F)c(F)c3)nn2)cc1Br` [Compound 3, 2,6-dibromo-4-(3-(3,4-difluorobenzyloxy)-1,2,4-triazin-6-yl)phenol]: 0.48 µM; for `Oc1c(Br)cc(-c2cnc(OCc3ccc(F)cc3F)nn2)cc1Br` [Compound 4, 2,6-dibromo-4-(3-(2,4-difluorobenzyloxy)-1,2,4-triazin-6-yl)phenol]: 0.54 µM.
The same measure for `COc1ccc(Cl)cc1COc1ncc(-c2cc(Br)c(O)c(Br)c2)nn1` [Compound 5, 2,6-dibromo-4-(3-(5-chloro-2-methoxybenzyloxy)-1,2,4-triazin-6-yl)phenol]: 0.7 µM.
`Oc1c(Br)cc(-c2cnc(OCc3ccccc3Br)nn2)cc1Br` [Compound 6, 2,6-dibromo-4-(3-(2-bromobenzyloxy)-1,2,4-triazin-6-yl)phenol] displayed an IC50 of 0.7 µM.
The same measure for `Oc1c(Br)cc(-c2cnc(OCc3cccc(Cl)c3)nn2)cc1Br` [Compound 7, 2,6-dibromo-4-(3-(3-chlorobenzyloxy)-1,2,4-triazin-6-yl)phenol]: 0.72 µM; for `Oc1c(Br)cc(-c2cnc(OCc3ccc4ccccc4c3)nn2)cc1Br` [Compound 8, 2,6-dibromo-4-(3-(naphthalen-2-ylmethoxy)-1,2,4-triazin-6-yl)phenol]: 0.72 µM; for `Oc1c(Br)cc(-c2cnc(OCc3ccc(F)cc3Cl)nn2)cc1Br` [Compound 9, 2,6-dibromo-4-(3-(2-chloro-4-fluorobenzyloxy)-1,2,4-triazin-6-yl)phenol]: 0.77 µM.
The same measure for `Oc1c(Br)cc(-c2cnc(OCCc3ccc(Cl)cc3Cl)nn2)cc1Br` [Compound 10, 2,6-dibromo-4-(3-(2,4-dichlorophenethoxy)-1,2,4-triazin-6-yl)phenol]: 0.66 µM; for `CC(Oc1ncc(-c2cc(Br)c(O)c(Br)c2)nn1)c1ccc(Cl)cc1` (centres unmarked) [Compound 11, 2,6-dibromo-4-(3-(1-(4-chlorophenyl)ethoxy)-1,2,4-triazin-6-yl)phenol]: 0.84 µM.
The same measure for `CC(Oc1ncc(-c2cc(Br)c(O)c(Br)c2)nn1)c1cccc(Cl)c1` (centres unmarked) [Compound 12, 2,6-dibromo-4-(3-(1-(3-chlorophenyl)ethoxy)-1,2,4-triazin-6-yl)phenol]: 0.84 µM; for `Oc1c(Br)cc(-c2cnc(OCc3cccc4ccccc34)nn2)cc1Br` [Compound 13, 2,6-dibromo-4-(3-(naphthalen-1-ylmethoxy)-1,2,4-triazin-6-yl)phenol]: 0.88 µM.
With `Oc1c(Br)cc(-c2cnc(OCc3ccc(-c4ccccc4)cc3)nn2)cc1Br` [Compound 14, 4-(3-(biphenyl-4-ylmethoxy)-1,2,4-triazin-6-yl)-2,6-dibromophenol], the midpoint of inhibition, the IC50, lay at 0.89 µM.
The same measure for `Oc1c(Br)cc(-c2cnc(OCc3ccc(Cl)cc3Cl)nn2)cc1Br` [Compound 15, 2,6-dibromo-4-(3-(2,4-dichlorobenzyloxy)-1,2,4-triazin-6-yl)phenol]: 0.94 µM.
The same measure for `Oc1c(Br)cc(-c2cnc(OCc3ccc(C(F)(F)F)cc3)nn2)cc1Br` [Compound 16, 2,6-dibromo-4-(3-(4-(trifluoromethyl)benzyloxy)-1,2,4-triazin-6-yl)phenol]: 1.07 µM.
The same measure for `CN(C)c1cccc(COc2ncc(-c3cc(Br)c(O)c(Br)c3)nn2)c1` [Compound 17, 2,6-dibromo-4-(3-(3-(dimethylamino)benzyloxy)-1,2,4-triazin-6-yl)phenol]: 1.17 µM; for `Oc1c(Br)cc(-c2cnc(OCc3ccccc3Cl)nn2)cc1Br` [Compound 18, 2,6-dibromo-4-(3-(2-chlorobenzyloxy)-1,2,4-triazin-6-yl)phenol]: 1.18 µM.
Regarding `Oc1c(Br)cc(-c2cnc(OCc3ccccc3)nn2)cc1Br` [Compound 19, 4-(3-(benzyloxy)-1,2,4-triazin-6-yl)-2,6-dibromophenol], the 50% inhibitory concentration (IC50) is 1.37 µM.
In the case of `Oc1c(Br)cc(-c2cnc(OCc3ccc(Cl)cc3)nn2)cc1Br` [Compound 20, 2,6-dibromo-4-(3-(4-chlorobenzyloxy)-1,2,4-triazin-6-yl)phenol], half-maximal inhibition (IC50) was put at 0.85 µM.
The same measure for `Oc1c(Br)cc(-c2cnc(Oc3ccc(Cl)c(Cl)c3)nn2)cc1Br` [Compound 21, 2,6-dibromo-4-(3-(3,4-dichlorophenoxy)-1,2,4-triazin-6-yl)phenol]: 2.12 µM; for `Oc1c(Br)cc(-c2cnc(OCc3c(Cl)cc(Cl)cc3Cl)nn2)cc1Br` [Compound 22, 2,6-dibromo-4-(3-(2,4,6-trichlorobenzyloxy)-1,2,4-triazin-6-yl)phenol]: 2.33 µM; for `Oc1c(Br)cc(-c2cnc(OCc3cccc(Cl)c3Cl)nn2)cc1Br` [Compound 23, 2,6-dibromo-4-(3-(2,3-dichlorobenzyloxy)-1,2,4-triazin-6-yl)phenol]: 2.7 µM.
The same measure for `Oc1c(Br)cc(-c2cnc(OCc3ccc(Br)cc3)nn2)cc1Br` [Compound 24, 2,6-Dibromo-4-(3-(4-bromobenzyloxy)-1,2,4-triazin-6-yl)phenol]: 3.02 µM; for `Oc1c(Br)cc(-c2cnc(OCc3cccc(Br)c3)nn2)cc1Br` [Compound 25, 2,6-dibromo-4-(3-(3-bromobenzyloxy)-1,2,4-triazin-6-yl)phenol]: 19.8 µM.
Turning to `Oc1c(Br)cc(-c2cnc(OCc3cc(Cl)cc(Cl)c3)nn2)cc1Br` [Compound 26, 2,6-dibromo-4-(3-(3,5-dichlorobenzyloxy)-1,2,4-triazin-6-yl)phenol], 0.38 µM corresponded to half-maximal inhibition (IC50).
The same measure for `Oc1c(Br)cc(-c2cnc(OCc3cccc(Oc4ccccc4)c3)nn2)cc1Br` [Compound 27, 2,6-dibromo-4-(3-(3-phenoxybenzyloxy)-1,2,4-triazin-6-yl)phenol]: 0.56 µM.
The same measure for `Oc1c(Br)cc(-c2cnc(OCc3ccc(OC(F)(F)F)cc3)nn2)cc1Br` [Compound 28, 2,6-dibromo-4-(3-(4-(trifluoromethoxy)benzyloxy)-1,2,4-triazin-6-yl)phenol]: 15.5 µM; for `Cc1cc(Cl)ccc1COc1ncc(-c2cc(Br)c(O)c(Br)c2)nn1` [Compound 29, 2,6-dibromo-4-(3-(4-chloro-2-methylbenzyloxy)-1,2,4-triazin-6-yl)phenol]: 1.35 µM; for `Oc1c(Br)cc(-c2cnc(COc3cccc(Cl)c3Cl)nn2)cc1Br` [Compound 30, 2,6-dibromo-4-(3-((2,3-dichlorophenoxy)methyl)-1,2,4-triazin-6-yl)phenol]: 9.59 µM.
The same measure for `Oc1c(Br)cc(-c2cnc(C(O)(c3ccccc3)c3ccccc3)nn2)cc1Br` [Compound 32, 2,6-dibromo-4-(3-(hydroxydiphenylmethyl)-1,2,4-triazin-6-yl)phenol]: 4.93 µM; for `Oc1c(Br)cc(-c2cnc(COc3cccc4ccccc34)nn2)cc1Br` [Compound 33, 2,6-Dibromo-4-(3-((naphthalen-1-yloxy)methyl)-1,2,4-triazin-6-yl)phenol]: 5.39 µM.
